# Reference: patent US20240344062A1, “RIBOSOMAL RNA (rRNA) VARIANTS […] PROTEIN PRODUCTION CAPABILITIES” (THE BROAD INSTITUTE, INC., priority 2021, published 2024)
# Test system: gIII under o-RBS variants
# Experiment: Two-stage selection of o-RBS/o-antiRBS pairs (phage titers post infection)
# Details: seven o-RBS variants with o-antiRBSlib SPs
substance,measurement,value
"o-RBSH3: orthogonal ribosome binding site, SEQ ID NO: 7 (DNA UUUCCAAUAUACAGAUCUAUG; listed as RNA, chemistry not fully specified)",propagation (phage titers) post infection,highest titers
